Test results published in article PMC6429200, “Synthesis and Broad Antiviral Activity of Novel 2-aryl-isoindolin-1-ones towards Diverse Enterovirus A71 Clinical Isolates” (Molecules, 2019).

Assays:
[1] = Cytotoxicity assay (CPE) on Vero cells; assay type: cell-based; conditions: African green monkey; Vero cells, 3 days of incubation, Reed–Muench; read-out: CC50
Experimental: (§1) An in-vitro antiviral assay was established using the Africa monkey kidney cell line Vero which was infected with different EV-A71 clinical isolates (BrCr, H, Shenzhen98 and Jiangsu52). A total of 24 synthetic compounds were initially screened in such an assay to determine their inhibitory effect on virus replication at 3-fold diluted concentrations serial (400~0.18 μM). The 50% effective concentration (EC50) of each compound was calculated according to its inhibitory rate values with the Reed–Muench method. The 50% cytotoxic concentration (CC50) was defined as the concentration that inhibited 50% cellular growth in comparison with the controls. The selectivity index (SI) was calculated as CC50/EC50. […] Generally, the EV-A71 H strain was less sensitive to most of the active compounds as compared to the other virus strains.
African green monkey kidney (Vero) cells were purchased from the American Type Culture Collection (ATCC) and were cultured in minimum essential medium (MEM) supplemented with 10% fetal bovine serum (FBS) (GIBCO) and antibiotics (100 U/mL penicillin and […] streptomycin) at 37 °C in a 5% CO2 incubator.
The cytotoxic effects of compounds on Vero cells were detected by the cytopathic effect (CPE) assay. Briefly, cells (3 × 10^4 cells/well) were seeded into 96-well culture plates and incubated overnight. Then, the medium was removed and different concentrations of compounds were applied in triplicate. After 3 days of incubation, the CC50 was defined as the concentration that inhibited 50% cellular growth in comparison with the untreated controls, as calculated by the Reed–Muench method.

[2] = system: EV-A71 strain BrCr; test: CPE inhibition assay for anti-EV-A71 in Vero cells, BrCr strain; assay type: cell-based, Enterovirus 71 (EV-A71); conditions: for BrCr SI: CC50/EC50; for EC50: Enterovirus A, EVA71, Vero cells, 100TCID50, 48 h
Experimental: as §1
(§2) EV-A71 strain ShenZhen98 (SZ98) was isolated from the throat swab sample of an HFMD case which occurred in 1998 in China. This was kindly provided by Dr. Qi Jin, Institute of Pathogen Biology, Chinese Academy of Medical Science and Peking Union Medical School, Beijing, China. EV-A71 strains BrCr (VR-1775) and H (VR-1432) were purchased from the ATCC. The EV-A71 strain JS52 was a kind gift from Dr. Xiangzhong Ye, Beijing Wantai Biological Pharmacy Enterprise Co., Ltd. EV-A71 were all passaged in Vero cells.
(§3) The anti-EV-A71 activity of compounds was determined by the CPE inhibition method. Briefly, cells (3 × 10^4 cells/well) were plated into 96-well culture plates for incubation for 24 h. The medium was then removed and cells were infected with EV-A71 with 100TCID50 (50% tissue culture infective doses) in serum-free medium for 1 h at 37 °C. Then, the unbound viruses were removed and various concentrations of compounds were supplemented and incubated for another 48 h. The EC50 was determined by the Reed–Muench method. The selectivity index was calculated as the ratio of CC50/EC50 [15].

[3] = system: EV-A71 strain H; test: CPE inhibition assay for anti-EV-A71 in Vero cells, H strain; assay type: cell-based, Enterovirus 71 (EV-A71); conditions: for H SI: CC50/EC50; for EC50: Enterovirus A, EVA71, Vero cells, 100TCID50, 48 h
Experimental: as §1, §2, §3

[4] = system: EV-A71 strain Jiangsu52 (JS52); test: CPE inhibition assay for anti-EV-A71 in Vero cells, Jiangsu52 strain; assay type: cell-based, Enterovirus 71 (EV-A71); conditions: for Jiangsu52 SI: CC50/EC50; for EC50: Enterovirus A, EVA71, Vero cells, 100TCID50, 48 h
Experimental: as §1, §2, §3

[5] = system: EV-A71 strain ShenZhen98 (SZ98); test: CPE inhibition assay for anti-EV-A71 in Vero cells, Shenzhen98 strain; assay type: cell-based, Enterovirus 71 (EV-A71); conditions: for Shenzhen98 SI: CC50/EC50; for EC50: Enterovirus A, EVA71, Vero cells, 100TCID50, 48 h
Experimental: as §1, §2, §3

Row | SMILES | EC50 [2] | EC50 [3] | EC50 [4] | EC50 [5] | CC50 at 3 days [1] | BrCr SI [2] | H SI [3] | Jiangsu52 SI [4] | Shenzhen98 SI [5]
1 | O=C1c2ccccc2CN1c1ccc(F)cc1 [Compound A2, 2-(4-fluorophenyl)isoindolin-1-one] | 3.23 ± 0.25 µM | 4.43 ± 0.88 µM | 3.74 ± 0.8 µM | 4.43 ± 0.68 µM | 218 ± 22.3 µM | 67 | 49 | 58 | 49
2 | O=C1c2ccccc2CN1c1ccc(-c2ccccc2)cc1 [Compound A6, 2-([1,1’-biphenyl]-4-yl)isoindolin-1-one] | – | – | – | – | 218 ± 22.3 µM | / (/ represents selectivity index (SI) value of less than 10) | / (/ represents selectivity index (SI) value of less than 10) | / (/ represents selectivity index (SI) value of less than 10) | / (/ represents selectivity index (SI) value of less than 10)
3 | CN1CCN(C(=O)c2ccc(N3Cc4ccccc4C3=O)cc2)CC1 [Compound A11, 2-(4-(4-methylpiperazine-1-carbonyl)phenyl)isoindolin-1-one] | – | – | – | – | 115 µM | / (/ represents selectivity index (SI) value of less than 10) | / (/ represents selectivity index (SI) value of less than 10) | / (/ represents selectivity index (SI) value of less than 10) | / (/ represents selectivity index (SI) value of less than 10)
4 | O=C(c1ccc(N2Cc3ccccc3C2=O)cc1)N1CCOCC1 [Compound A12, 2-(4-(morpholin-4-carbonyl)phenyl)isoindolin-1-one] | 27 ± 3.38 µM | 24.4 ± 9.37 µM | 30.3 ± 2.38 µM | 30.3 ± 2.38 µM | 180 ± 27.3 µM | / (/ represents selectivity index (SI) value of less than 10) | / (/ represents selectivity index (SI) value of less than 10) | / (/ represents selectivity index (SI) value of less than 10) | / (/ represents selectivity index (SI) value of less than 10)
5 | CCC(=O)Nc1ccc2c(c1)CN(c1ccc(C)cc1)C2=O [Compound C3, N-(1-oxo-2-(p-tolyl)isoindolin-5-yl)propionamide] | – | – | – | – | 113 ± 17.2 µM | / (/ represents selectivity index (SI) value of less than 10) | / (/ represents selectivity index (SI) value of less than 10) | / (/ represents selectivity index (SI) value of less than 10) | / (/ represents selectivity index (SI) value of less than 10)
6 | COc1cc(N2Cc3ccccc3C2=O)cc(OC)c1OC [Compound A8, 2-(3,4,5-trimethoxyphenyl)isoindolin-1-one] | 12.6 ± 2.22 µM | – | 12.6 ± 2.22 µM | 13 ± 2 µM | 76.5 ± 13.1 µM | / (/ represents selectivity index (SI) value of less than 10) | / (/ represents selectivity index (SI) value of less than 10) | / (/ represents selectivity index (SI) value of less than 10) | / (/ represents selectivity index (SI) value of less than 10)
7 | COc1ccc(N2Cc3cc(N)ccc3C2=O)cc1 [Compound 5, 5-amino-2-(4-methoxyphenyl)isoindolin-1-one] | 9.12 ± 0.76 µM | 16.2 ± 1.9 µM | 9.7 ± 0.76 µM | 9.12 ± 0.76 µM | 159 ± 17.1 µM | 17 | – | 16 | 17
8 | O=C1c2ccccc2CN1c1ccc(Cl)cc1Cl [Compound A5, 2-(2,4-dichlorophenyl)isoindolin-1-one] | 1.27 ± 0.01 µM | 1.81 ± 0.21 µM | 1.27 ± 0.01 µM | 1.39 ± 0.17 µM | 68.4 ± 5.72 µM | 54 | 38 | 54 | 49
9 | CCC(=O)Nc1ccc2c(c1)CN(c1ccc(OC)cc1)C2=O [Compound C2, N-(2-(4-methoxyphenyl)-1-oxoisoindolin-5-yl)propionamide] | – | – | – | – | 231 µM | / (/ represents selectivity index (SI) value of less than 10) | / (/ represents selectivity index (SI) value of less than 10) | / (/ represents selectivity index (SI) value of less than 10) | / (/ represents selectivity index (SI) value of less than 10)
10 | COc1ccc(N2Cc3ccc(N)cc3C2=O)cc1 [Compound 4, 6-amino-2-(4-methoxyphenyl)isoindolin-1-one] | 5.27 ± 0.44 µM | 11.7 ± 2.1 µM | 5.74 ± 0.54 µM | 5.27 ± 0.44 µM | 231 µM | 44 | 19 | 40 | 43
11 | O=C1c2ccccc2CN1c1ccc2ccncc2c1 [Compound A9, 2-(isoquinolin-7-yl)isoindolin-1-one] | 17 ± 2.92 µM | – | 17 ± 2.92 µM | 17 ± 2.92 µM | 96.5 ± 9.34 µM | / (/ represents selectivity index (SI) value of less than 10) | / (/ represents selectivity index (SI) value of less than 10) | / (/ represents selectivity index (SI) value of less than 10) | / (/ represents selectivity index (SI) value of less than 10)
12 | CCCN(CCC)c1ccc2c(c1)CN(c1ccc(OC)cc1)C2=O [Compound B4, 5-(dipropylamino)-2-(4-methoxyphenyl)isoindolin-1-one] | – | – | – | – | 124 ± 12.6 µM | / (/ represents selectivity index (SI) value of less than 10) | / (/ represents selectivity index (SI) value of less than 10) | / (/ represents selectivity index (SI) value of less than 10) | / (/ represents selectivity index (SI) value of less than 10)
13 | O=C(O)c1ccc(N2Cc3ccccc3C2=O)cc1 [Compound A10, 4-(1-oxoisoindolin-2-yl)benzoic acid] | 12.9 ± 2.24 µM | 13.7 ± 5.71 µM | 14.6 ± 2.24 µM | 14.6 ± 2.24 µM | 46.2 µM | / (/ represents selectivity index (SI) value of less than 10) | / (/ represents selectivity index (SI) value of less than 10) | / (/ represents selectivity index (SI) value of less than 10) | / (/ represents selectivity index (SI) value of less than 10)

Continued, in another order:

Row | EC50 [2] | EC50 [3] | EC50 [4] | EC50 [5] | SMILES | CC50 at 3 days [1] | BrCr SI [2] | H SI [3] | Jiangsu52 SI [4] | Shenzhen98 SI [5]
14 | 5.85 ± 0.6 µM | > 44.4 µM | 5.91 ± 0.65 µM | 5.85 ± 0.6 µM | CCC(=O)Nc1ccc2c(c1)C(=O)N(c1ccc(OC)cc1)C2 [Compound C1, N-(2-(4-methoxyphenyl)-3-oxoisoindolin-5-yl)propionamide] | 152 ± 27 µM | 26 | / (/ represents selectivity index (SI) value of less than 10) | 25 | 26
15 | – | 66.7 µM | 56.5 ± 14.5 µM | – | O=C1c2cc(-c3ccccc3)ccc2CN1c1ccc(Cl)cc1 [Compound D1] | 115 µM | / (/ represents selectivity index (SI) value of less than 10) | / (/ represents selectivity index (SI) value of less than 10) | 2 | / (/ represents selectivity index (SI) value of less than 10)
16 | 34.6 ± 6.54 µM | – | 40.3 ± 5.54 µM | 34.6 ± 6.54 µM | CCCN(CCC)c1ccc2c(c1)C(=O)N(c1ccc(OC)cc1)C2 [Compound B2, 6-(dipropylamino)-2-(4-methoxyphenyl)isoindolin-1-one] | 257 ± 35.3 µM | / (/ represents selectivity index (SI) value of less than 10) | / (/ represents selectivity index (SI) value of less than 10) | / (/ represents selectivity index (SI) value of less than 10) | / (/ represents selectivity index (SI) value of less than 10)
17 | 18.4 ± 2.41 µM | – | 20.6 ± 1.01 µM | 18.4 ± 2.41 µM | CCCNc1ccc2c(c1)CN(c1ccc(OC)cc1)C2=O [Compound B3, 2-(4-methoxyphenyl)-5-(propylamino)isoindolin-1-one] | 231 µM | 13 | / (/ represents selectivity index (SI) value of less than 10) | 11 | 13
